# How the values were obtained:
# [1] = tested on: patient with aseptic meningitis; assay: treatment of aseptic meningioencephalitis / aseptic meningitis; assay type: in vivo, human
# Description: The inventor thought that the cause of the AME was the patient's herpes infection that had spread internally to the brain and meninges. […] Because the product inserts for the anti-viral products on the market ([…]®) all warned against using increased doses of the product because of the fear of further renal damage, there was reason not to use increased doses beyond those of '114. […] A patient weighing about 100 kg having multiple signs or symptoms of autoimmune disease had been ingesting famciclovir for several years at about 10 g per day taken 4 times daily during a 24 hour period. While the subject's condition was tolerable, they were in a regular state of pain in the joints and had other signs or symptoms discussed below. They experienced significant headache pain, which was diagnosed as aseptic meningitis, which was discovered to be treatable initially using 340 mg of famciclovir per kg body weight. […] The inflammation and pain are therefore thought to be caused by the immune attack on the infected tissues. Within hours of taking the high doses of famciclovir, the patient experienced at least 60% relief of the extremely painful and debilitating symptoms of meningitis. […] The Shalabi, et al. report is discouraging. According to the authors, the disease is self-resolving. Without a double-blind study, it was not possible to detect the contribution of acyclovir to the recovery.
# [2] = tested on: patient with urination problems; assay: urination problems (benign prostate hypertrophy symptoms); assay type: in vivo, human; conditions: 300 mg/kg per day, taken in 6 hour increments
# Procedure: The same high doses of famciclovir also relieved urination problems in a patient, such as hesitancy, weak stream and retention. These signs or symptoms are usually associated with benign prostate hypertrophy. However, without taking any prostate-specific drugs, but famciclovir alone, the patient achieved substantial relief of these symptoms. The signs or symptoms disappeared or were at least 90% relieved at 300 mg/kg of famciclovir per day, taken in 6 hour increments. The symptoms returned in about 10 hours when the drug was taken every 10 hours instead of every six hours. When the drug was taken every 6 hours, the symptoms, once again, disappeared.
# patient lung function = assay: lung function by blood oxygenation (pulse oximetry); assay type: in vivo, human
# Description: Still another example of improvement that the inventor has discovered is improved pulmonary function. […] The pulmonary function was increased to 96% SATS by using the very high dose treatment of this invention. […] Thus the method of this invention can treat and reverse pulmonary hypertension and pulmonary fibrosis. […] Improvements of this kind in this range with this kind of patient (no known existing lung disease) are unusual. Thus, another aspect of this invention is a method to improve pulmonary function by administering a compound in accordance with the teachings herein. Treatments which cause similar improvements in patients with lung disease are direct acting relaxants upon the muscles of the vessels and the airways of the lung. The compounds of this invention have no such direct effect, and can only relax these critical lung muscles by suppressing the herpetically-induced “hypertonus” or resting tone of these muscles which was elevated above normal tone by the herpetic activity in the cells of the sympathetic chain which control these muscles.
# An improvement in lung function was seen, possibly via relief of pulmonary hypertension, while taking famciclovir at 300 mg/kg per day. […] The patient's oxyhemoglobin increased from 92% to 96%. This small improvement is significant for this parameter in the 90%-100% range. […]
# [3] = tested on: patient with rheumatoid arthritis; assay: rheumatoid arthritis signs or symptoms; assay type: in vivo, human; conditions: 300 mg/kg per day
# Procedure: Another effect of anti-herpes drugs was elimination of the signs or symptoms of rheumatoid arthritis. A patient experienced 100% reduction in joint swelling, pain, inflammation and clicks at 300 mg/kg of famciclovir per day.
# [4] = tested on: patient with nose and brow acne and rosacea; assay: acne and rosacea; assay type: in vivo, human; conditions: 300 mg/kg per day
# Procedure: Additional symptoms relieved by the high doses of anti-herpes drugs involve severe nose and brow acne and rosacea on the chin and lower cheeks. Although the mechanism for these conditions is not understood, they are believed to be of autoimmune origin. Both skin conditions disappeared at 300 mg/kg of famciclovir per day and recurred when the drug was stopped.
# [5] = tested on: patients with autoimmune disease; assay: pain and signs or symptoms of autoimmune disease in general; assay type: in vivo, human; conditions: very high levels
# Procedure: After the drugs take effect, usually in less than an hour, the pain is at least 50% reduced or disappears. This is a particularly surprising and useful discovery.
# In the past, it was observed, that a patient that stopped increasing the dosage of the anti-herpes drugs at the threshold of pain rarely achieves the relief of the autoimmune signs or symptoms. Patients who exceed the pain threshold and take over 20 g per day (over 200 mg/kg/day) start experiencing a reduction in autoimmune symptoms for prolonged periods of time. The pain in such patients eventually disappears. Patients who take even higher doses, 30 g per day for a 100 kg subject (300 mg/kg) and higher, experience a continuous relief of at least 90% of all of their autoimmune signs or symptoms, including pain, as long as they continue taking the drug.
# Most importantly, the present invention teaches alleviation of pain associated with autoimmune disease. The prior art, including the '114 patent, teaches to use pain as guide when adjusting the maximum dose of the anti-herpes drug. However, it is now disclosed that a patient should tolerate the pain during the initial period of taking extremely high doses of anti-herpes drugs. After the drugs take effect, usually in less than an hour, the pain is at least 50% reduced or disappears. […]
# [6] = body pH of 7.4; cited from earlier work
# [7] = approved oral dose range; cited from earlier work
structure (smiles),measurement,setting,value
"CC(=O)OCC(CCn1cnc2cnc(N)nc21)COC(C)=O [famciclovir, 2-amino-9-(4-acetoxy-3-acetoxymethylbut-1-yl)purine]",unremitting severe symptoms of aseptic meningitis,"[1]; 340 mg/kg per day, maintained at 300 mg/kg/day",quickly dispersed
same,relief of symptoms of meningitis,"[1]; 340 mg/kg, within hours of taking",at least 60%
same,treating the AME,[1]; maximum dose of 120 mg/kg body weight as taught in '114,ineffective
same,acute pain and the AME,"[1]; more than 250, e.g. 340 to 400 mg/kg/day",completely stopped
same,"urination signs or symptoms (hesitancy, weak stream, retention) relieved",[2],at least 90%
same,pulse O2 (oxyhemoglobin),"patient lung function; after six months of 300 mg/kg per day, from 92%",96%
same,pulse O2 (oxyhemoglobin),patient lung function; several years taking about 100 mg/kg,92%
same,"reduction in joint swelling, pain, inflammation and clicks",[3],100%
same,"skin conditions (acne, rosacea)",[4],disappeared
same,pain associated with autoimmune disease,[5],immediate relief
same,water solubility compared with other representative compounds such as acyclovir,[6],more water soluble
same,absorption (dose linearity),[7],linear

# From US20110105434A1, “2-AMINO PURINE DERIVATIVES AND THEIR USE AS ANTI-HERPETIC AGENTS” (priority 2007, published 2011)
